Literature values in US12133892B2, “Methods and compositions for increasing susceptibility to radiation treatment by inhibiting suppression of numerical chromosomal instability of cancer cells” (MEMORIAL SLOAN KETTERING CANCER CENTER, priority 2015, dated 2024).

Tests used:
human glioblastoma = settings: 100 mg/kg
Bub1 = Bub1 (Homo sapiens, UniProt O43683)
Kif2b = settings: read-out: IC50 in inhibiting Kif2b
MCAK = target: T1, MCAK (Homo sapiens, UniProt Q99661); settings: read-out: IC50 in inhibiting MCAK
T1 sequence (Q99661 1-725): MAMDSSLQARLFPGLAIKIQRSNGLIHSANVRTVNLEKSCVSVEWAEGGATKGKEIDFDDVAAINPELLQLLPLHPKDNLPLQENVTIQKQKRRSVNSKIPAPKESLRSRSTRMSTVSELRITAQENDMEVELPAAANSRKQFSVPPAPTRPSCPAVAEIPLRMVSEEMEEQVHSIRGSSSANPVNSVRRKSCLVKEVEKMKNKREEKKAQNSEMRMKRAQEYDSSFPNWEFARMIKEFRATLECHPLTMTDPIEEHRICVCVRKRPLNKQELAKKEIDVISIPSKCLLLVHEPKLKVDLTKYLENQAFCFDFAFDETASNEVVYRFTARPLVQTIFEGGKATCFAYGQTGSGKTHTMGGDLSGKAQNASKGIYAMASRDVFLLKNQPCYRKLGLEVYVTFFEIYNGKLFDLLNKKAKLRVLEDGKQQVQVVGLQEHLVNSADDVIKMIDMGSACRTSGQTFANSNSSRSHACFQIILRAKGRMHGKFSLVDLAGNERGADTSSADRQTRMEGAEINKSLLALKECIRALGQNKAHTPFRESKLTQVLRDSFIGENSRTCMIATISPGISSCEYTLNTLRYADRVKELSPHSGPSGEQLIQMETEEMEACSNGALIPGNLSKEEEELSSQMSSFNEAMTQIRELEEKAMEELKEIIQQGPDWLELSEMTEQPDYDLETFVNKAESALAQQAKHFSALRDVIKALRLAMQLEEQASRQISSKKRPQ

PLK4 = target: T2, PLK4 (Homo sapiens, UniProt O00444); settings: in vitro; read-out: inhibition constant (Ki)
T2 sequence (O00444 1-970): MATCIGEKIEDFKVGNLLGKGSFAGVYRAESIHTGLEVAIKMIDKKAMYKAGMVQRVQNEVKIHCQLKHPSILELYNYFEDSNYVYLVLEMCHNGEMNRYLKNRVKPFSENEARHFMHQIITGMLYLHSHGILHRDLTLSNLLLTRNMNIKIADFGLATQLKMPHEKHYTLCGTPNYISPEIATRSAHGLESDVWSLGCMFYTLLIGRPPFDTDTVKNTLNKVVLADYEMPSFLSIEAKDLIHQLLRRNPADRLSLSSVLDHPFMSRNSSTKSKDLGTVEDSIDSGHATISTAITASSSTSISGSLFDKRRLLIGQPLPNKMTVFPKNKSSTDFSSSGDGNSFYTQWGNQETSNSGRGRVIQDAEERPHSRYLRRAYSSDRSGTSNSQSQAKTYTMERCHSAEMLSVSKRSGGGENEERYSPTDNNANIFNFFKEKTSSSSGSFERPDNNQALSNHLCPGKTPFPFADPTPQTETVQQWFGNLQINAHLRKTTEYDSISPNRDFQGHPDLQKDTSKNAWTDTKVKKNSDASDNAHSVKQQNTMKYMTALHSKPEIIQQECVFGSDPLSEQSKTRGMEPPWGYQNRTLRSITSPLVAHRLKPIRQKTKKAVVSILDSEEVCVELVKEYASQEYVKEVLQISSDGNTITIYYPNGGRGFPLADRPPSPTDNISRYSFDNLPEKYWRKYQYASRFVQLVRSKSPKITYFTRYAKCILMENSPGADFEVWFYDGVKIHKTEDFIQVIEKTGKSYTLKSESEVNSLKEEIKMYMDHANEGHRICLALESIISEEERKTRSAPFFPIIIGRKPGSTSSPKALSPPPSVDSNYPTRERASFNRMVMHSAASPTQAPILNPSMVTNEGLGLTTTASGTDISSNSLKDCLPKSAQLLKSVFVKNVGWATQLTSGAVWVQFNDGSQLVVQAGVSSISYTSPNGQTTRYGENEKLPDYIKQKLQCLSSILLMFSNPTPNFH

[1] = mice, 7 days, 7.5, 22.5, 75.0 mg/kg twice a day oral
[2] = system: triple negative breast cancer, colon cancer and liver cancer; settings: animal models of triple negative breast cancer
breast cancer model = settings: mice, twice a day for 28 days, orally 10, 25, 50 mg/kg

Chain of Bub1 (O43683 whole entry, species assumed): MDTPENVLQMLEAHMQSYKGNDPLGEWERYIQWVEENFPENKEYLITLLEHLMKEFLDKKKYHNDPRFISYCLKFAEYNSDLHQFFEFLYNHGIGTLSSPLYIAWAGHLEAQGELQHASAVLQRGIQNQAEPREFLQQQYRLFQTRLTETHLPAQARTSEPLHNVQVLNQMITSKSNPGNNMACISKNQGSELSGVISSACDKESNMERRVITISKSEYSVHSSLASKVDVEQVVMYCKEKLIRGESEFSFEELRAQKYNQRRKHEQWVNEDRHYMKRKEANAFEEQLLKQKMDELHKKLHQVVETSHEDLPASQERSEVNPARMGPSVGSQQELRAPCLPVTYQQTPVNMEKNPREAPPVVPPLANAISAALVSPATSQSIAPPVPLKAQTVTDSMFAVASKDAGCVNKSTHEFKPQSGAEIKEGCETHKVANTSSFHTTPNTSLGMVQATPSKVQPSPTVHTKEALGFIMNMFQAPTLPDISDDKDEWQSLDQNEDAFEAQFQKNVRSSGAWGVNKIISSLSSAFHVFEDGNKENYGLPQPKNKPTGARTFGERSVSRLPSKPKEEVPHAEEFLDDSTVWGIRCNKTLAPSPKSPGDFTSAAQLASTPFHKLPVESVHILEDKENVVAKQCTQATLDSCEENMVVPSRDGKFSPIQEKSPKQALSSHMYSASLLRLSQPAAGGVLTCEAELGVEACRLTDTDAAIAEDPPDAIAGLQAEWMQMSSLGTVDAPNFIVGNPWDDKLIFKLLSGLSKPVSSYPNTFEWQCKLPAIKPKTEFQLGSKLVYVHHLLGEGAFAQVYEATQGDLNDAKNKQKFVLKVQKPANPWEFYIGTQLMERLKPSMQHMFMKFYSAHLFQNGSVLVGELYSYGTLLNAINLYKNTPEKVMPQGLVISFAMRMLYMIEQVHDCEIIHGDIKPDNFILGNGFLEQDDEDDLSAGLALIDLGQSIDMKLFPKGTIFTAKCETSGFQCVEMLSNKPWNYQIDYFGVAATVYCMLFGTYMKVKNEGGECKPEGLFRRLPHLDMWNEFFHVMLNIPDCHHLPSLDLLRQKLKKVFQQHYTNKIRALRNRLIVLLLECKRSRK

COc1cc2c(cc1F)C(c1ccccc1Cl)=Nc1c(n[nH]c1C)N2 [R1530]
expression of mitotic checkpoint kinase BubR1 (BubR1): downregulates

CCc1cccc(CC)c1NC(=O)c1nn(C)c2c1CCc1cnc(Nc3ccc(C(=O)NC4CCN(C)CC4)cc3OC(F)(F)F)nc1-2 [NMS-P715]
radiosensitization of human glioblastoma (human glioblastoma): enhances radiosensitization of human glioblastoma

CC(C)(C)n1nc(Cc2ccccc2O)c2c(N)ncnc21 [2OH-BNPP1]
IC50 (Bub1): ~250 nM

CC1=C(C(=O)OC(C)C)C(c2ccc(Cl)cc2)n2c(s/c(=C\c3ccc(OCC(=O)O)cc3)c2=O)=N1 (stereo not drawn) [DHTP, (Z)-2-(4-((5-(4-chlorophenyl)-6-(isopropoxycarbonyl)-7-methyl-3-oxo-3,5-dihydro-2H-thiazolo[3,2-a]pyrimidin-2-ylidene)methyl)phenoxy)acetic acid]
IC50 (Kif2b): 1200 nM | IC50 (MCAK): 4600 nM

COc1c(Nc2cc(C)[nH]n2)nc(Sc2ccc(S(=O)(=O)Cc3cccc([N+](=O)[O-])c3F)cc2F)nc1N1CCCCC1 [centrinone-B]
Ki (PLK4): 0.6 nM | centrosome depletion at concentration (centrosome): 500 nM

COc1ccc(Oc2cc(C)c(-c3csc(NC(=O)c4ccncc4)n3)c(C)c2)cc1 [TAI-1]
change in body weight, organ weight, and plasma indices [1]: no significant change | oral efficacy in vivo [2]: effective orally

COc1c(Nc2cc(C)[nH]n2)nc(Sc2ccc(S(=O)(=O)Cc3cccc([N+](=O)[O-])c3F)cc2F)nc1N1CCOCC1 [centrinone]
centrosome depletion at concentration (centrosome): 100 nM

COc1ccc2c(c1)[C@]1(C[C@H]1c1ccc3c(/C=C/c4ccc(CN5C[C@@H](C)O[C@@H](C)C5)cc4)n[nH]c3c1)C(=O)N2 [CFI-400945]
chromosome missegregation rates (breast cancer cell lines): increase chromosome missegregation rates

COCCOc1cnc(Sc2cc(C)c(-c3csc(NC(=O)c4ccncc4)n3)c(C)c2)cn1 [TAI-95]
oral efficacy in vivo (breast cancer model): excellent oral efficacy
